PubChem BioAssay AID200 (DTP/NCI, 2004)
“And” between values parts separate entries of the source, which are not always exact repeats. Identical values can stand only once. Toxic doses and inconclusive results are not listed.

Tested on: B6C3F1 mice, B16 melanoma ip, median survival T/C
Assay: NCI In Vivo Anticancer Drug Screen. Data for tumor model B16 Melanoma (intraperitoneal) in B6C3F1 mice
Conditions: endpoint: median survival time, higher = longer survival
In short: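 Readout: survival or tumor size in treated mice relative to vehicle controls (T/C). Model uses transplantable tumors grown in mice.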

[1] = dose: 25.0 mg/kg/injection, schedule: Q01DX009 (ip), vehicle: saline
[2] = dose: 50.0 mg/kg/injection, schedule: Q01DX009 (ip), vehicle: saline
[3] = dose: 12.5 mg/kg/injection, schedule: Q01DX009 (ip), vehicle: saline with Tween-80
[4] = dose: 25.0 mg/kg/injection, schedule: Q01DX009 (ip), vehicle: saline with Tween-80
[5] = dose: 50.0 mg/kg/injection, schedule: Q01DX009 (ip), vehicle: saline with Tween-80
[6] = dose: 100.0 mg/kg/injection, schedule: Q01DX009 (ip), vehicle: saline with Tween-80
[7] = dose: 200.0 mg/kg/injection, schedule: Q01DX009 (ip), vehicle: saline with Tween-80

## C[n+]1c(/C=C\C=C\N2CCCCC2)sc2ccccc21
dose: 0.12 mg/kg/injection, schedule: Q01DX009 (ip), vehicle: Klucel (hydroxypropylcellulose) (HPC)
  T/C: 107 % of control
dose: 0.25 mg/kg/injection, schedule: Q01DX009 (ip), vehicle: Klucel (hydroxypropylcellulose) (HPC)
  T/C: 95 % of control
dose: 0.5 mg/kg/injection, schedule: Q01DX009 (ip), vehicle: Klucel (hydroxypropylcellulose) (HPC)
  T/C: 90 % of control
dose: 1.0 mg/kg/injection, schedule: Q01DX009 (ip), vehicle: Klucel (hydroxypropylcellulose) (HPC)
  T/C: 95 % of control
dose: 2.0 mg/kg/injection, schedule: Q01DX009 (ip), vehicle: Klucel (hydroxypropylcellulose) (HPC)
  T/C: 110 % of control

## CC(=O)OC1=C(Cl)CCc2ccccc21
dose: 37.5 mg/kg/injection, schedule: Q01DX009 (ip), vehicle: saline with Tween-80
  T/C: 115 % of control
dose: 75.0 mg/kg/injection, schedule: Q01DX009 (ip), vehicle: saline with Tween-80
  T/C: 96 % of control
dose: 150.0 mg/kg/injection, schedule: Q01DX009 (ip), vehicle: saline with Tween-80
  T/C: 98 % of control

## C=C(C)/C([O-])=N/[N+](C)(C)CC(O)CCCCCCCCCCCC (stereo unspecified)
dose: 25.0 mg/kg/injection, schedule: Q01DX001 (ip), vehicle: saline
  T/C: 109 % of control
dose: 50.0 mg/kg/injection, schedule: Q01DX001 (ip), vehicle: saline
  T/C: 114 % of control and 116 % of control
dose: 100.0 mg/kg/injection, schedule: Q01DX001 (ip), vehicle: saline
  T/C: 114 % of control and 90 % of control
dose: 200.0 mg/kg/injection, schedule: Q01DX001 (ip), vehicle: saline
  T/C: 86 % of control

## CC(=O)Nc1ccc(N=Nc2c(C)nn(C(=N)N)c2C)cc1
dose: 3.12 mg/kg/injection, schedule: Q01DX009 (ip), vehicle: saline
  T/C: 103 % of control
dose: 6.25 mg/kg/injection, schedule: Q01DX009 (ip), vehicle: saline
  T/C: 99 % of control
dose: 12.5 mg/kg/injection, schedule: Q01DX009 (ip), vehicle: saline
  T/C: 105 % of control
[1]
  T/C: 95 % of control
[2]
  T/C: 101 % of control

## Cc1cc2c(cc1C)C(=O)c1c(O)c3c(c(O)c1C2=O)C[C@@](O)(C(=O)CO)C[C@@H]3OC1CC(N)C(O)C(C)O1 (stereo partly specified)
dose: 2.5 mg/kg/injection, schedule: Q01DX001 (ip), vehicle: water
  T/C: 193 % of control
dose: 5.0 mg/kg/injection, schedule: Q01DX001 (ip), vehicle: water
  T/C: 162 % of control and 193 % of control
dose: 10.0 mg/kg/injection, schedule: Q01DX001 (ip), vehicle: water
  T/C: 213 % of control and 236 % of control
dose: 20.0 mg/kg/injection, schedule: Q01DX001 (ip), vehicle: water
  T/C: 155 % of control and 240 % of control

## Nc1nc2ccc(NCc3ccc(C(=O)NC(CCC(=O)O)C(=O)O)cc3)cc2c(=O)[nH]1 (stereo unspecified)
dose: 6.25 mg/kg/injection, schedule: Q01DX009 (ip), vehicle: saline with Tween-80
  T/C: 88 % of control
[3]
  T/C: 91 % of control
[4]
  T/C: 97 % of control
[5]
  T/C: 91 % of control
[6]
  T/C: 93 % of control

## c1ccc(OCC2CO2)c(OCC2CO2)c1 (stereo unspecified)
[3]
  T/C: 108 % of control
[4]
  T/C: 109 % of control and 114 % of control and 118 % of control
[6]
  T/C: 150 % of control and 171 % of control
[7]
  T/C: 219 % of control

## CC(C)NC(=O)OCc1c(COC(=O)NC(C)C)c(-c2ccc(Cl)c(Cl)c2)n2c1CC(OC(=O)CN(C)C)C2 (stereo unspecified)
dose: 10.0 mg/kg/injection, schedule: Q01DX009 (ip), vehicle: distilled water + Tween-80
  T/C: 152 % of control and 153 % of control
dose: 20.0 mg/kg/injection, schedule: Q01DX009 (ip), vehicle: distilled water + Tween-80
  T/C: 152 % of control and 168 % of control
dose: 40.0 mg/kg/injection, schedule: Q01DX009 (ip), vehicle: distilled water + Tween-80
  T/C: 174 % of control and 190 % of control

## CCN(CC)CCn1[nH]c2c3ccc(=O)cc3sc3c(NCCN)ccc1c32
dose: 1.56 mg/kg/injection, schedule: Q01DX009 (ip), vehicle: water
  T/C: 161 % of control
dose: 1.7 mg/kg/injection, schedule: Q01DX009 (ip), vehicle: water
  T/C: 189 % of control
dose: 2.7 mg/kg/injection, schedule: Q01DX009 (ip), vehicle: water
  T/C: 225 % of control
dose: 4.5 mg/kg/injection, schedule: Q01DX009 (ip), vehicle: water
  T/C: 270 % of control
dose: 7.5 mg/kg/injection, schedule: Q01DX009 (ip), vehicle: water
  T/C: 281 % of control
dose: 12.5 mg/kg/injection, schedule: Q01DX009 (ip), vehicle: water
  T/C: 161 % of control and 264 % of control

## O=C1C(=O)c2cccnc2-c2ncccc21
dose: 0.75 mg/kg/injection, schedule: Q01DX009 (ip), vehicle: Klucel (hydroxypropylcellulose) (HPC)
  T/C: 104 % of control
dose: 0.78 mg/kg/injection, schedule: Q01DX009 (ip), vehicle: Klucel (hydroxypropylcellulose) (HPC)
  T/C: 102 % of control
dose: 1.5 mg/kg/injection, schedule: Q01DX009 (ip), vehicle: Klucel (hydroxypropylcellulose) (HPC)
  T/C: 115 % of control and 107 % of control
dose: 1.56 mg/kg/injection, schedule: Q01DX009 (ip), vehicle: Klucel (hydroxypropylcellulose) (HPC)
  T/C: 115 % of control and 98 % of control
dose: 3.0 mg/kg/injection, schedule: Q01DX009 (ip), vehicle: Klucel (hydroxypropylcellulose) (HPC)
  T/C: 119 % of control and 92 % of control and 98 % of control
dose: 3.12 mg/kg/injection, schedule: Q01DX009 (ip), vehicle: Klucel (hydroxypropylcellulose) (HPC)
  T/C: 114 % of control and 100 % of control
dose: 6.0 mg/kg/injection, schedule: Q01DX009 (ip), vehicle: Klucel (hydroxypropylcellulose) (HPC)
  T/C: 113 % of control and 87 % of control and 108 % of control
dose: 6.25 mg/kg/injection, schedule: Q01DX009 (ip), vehicle: Klucel (hydroxypropylcellulose) (HPC)
  T/C: 109 % of control

## COc1cccc2c1C(=O)c1c(O)c3c(c(O)c1C2=O)C[C@@](O)(C(C)=O)C[C@@H]3OC1CC(N(Cc2ccccc2)Cc2ccccc2)C(O)C(C)O1 (stereo partly specified)
dose: 1.5 mg/kg/injection, schedule: Q01DX009 (ip), vehicle: saline with Tween-80
  T/C: 100 % of control
dose: 1.5 mg/kg/injection, schedule: Q01DX009 (ip), vehicle: water
  T/C: 112 % of control
dose: 3.0 mg/kg/injection, schedule: Q01DX009 (ip), vehicle: saline with Tween-80
  T/C: 111 % of control
dose: 3.0 mg/kg/injection, schedule: Q01DX009 (ip), vehicle: water
  T/C: 116 % of control
dose: 12.0 mg/kg/injection, schedule: Q01DX009 (ip), vehicle: saline with Tween-80
  T/C: 156 % of control
dose: 12.0 mg/kg/injection, schedule: Q01DX009 (ip), vehicle: water
  T/C: 151 % of control

## CCC1OCCN1C(C)C (stereo unspecified)
[1]
  T/C: 107 % of control
[2]
  T/C: 107 % of control
dose: 100.0 mg/kg/injection, schedule: Q01DX009 (ip), vehicle: saline
  T/C: 98 % of control

## [Cl][Pt+2][Cl].[NH-]c1ccc([N+](=O)[O-])cc1[NH-]
dose: 10.0 mg/kg/injection, schedule: Q01DX009 (ip), vehicle: saline with Tween-80
  T/C: 107 % of control
dose: 20.0 mg/kg/injection, schedule: Q01DX009 (ip), vehicle: saline with Tween-80
  T/C: 105 % of control
dose: 40.0 mg/kg/injection, schedule: Q01DX009 (ip), vehicle: saline with Tween-80
  T/C: 118 % of control
dose: 80.0 mg/kg/injection, schedule: Q01DX009 (ip), vehicle: saline with Tween-80
  T/C: 116 % of control

## C(C#CCN1CCOCC1)#CCN1CCOCC1
dose: 12.5 mg/kg/injection, schedule: Q01DX009 (ip), vehicle: Klucel (hydroxypropylcellulose) (HPC)
  T/C: 102 % of control
[3]
  T/C: 105 % of control
dose: 25.0 mg/kg/injection, schedule: Q01DX009 (ip), vehicle: Klucel (hydroxypropylcellulose) (HPC)
  T/C: 110 % of control
[4]
  T/C: 106 % of control
dose: 50.0 mg/kg/injection, schedule: Q01DX009 (ip), vehicle: Klucel (hydroxypropylcellulose) (HPC)
  T/C: 105 % of control
[5]
  T/C: 106 % of control
dose: 100.0 mg/kg/injection, schedule: Q01DX009 (ip), vehicle: Klucel (hydroxypropylcellulose) (HPC)
  T/C: 121 % of control
[6]
  T/C: 111 % of control
dose: 200.0 mg/kg/injection, schedule: Q01DX009 (ip), vehicle: Klucel (hydroxypropylcellulose) (HPC)
  T/C: 107 % of control
[7]
  T/C: 98 % of control
dose: 400.0 mg/kg/injection, schedule: Q01DX009 (ip), vehicle: Klucel (hydroxypropylcellulose) (HPC)
  T/C: 91 % of control
dose: 400.0 mg/kg/injection, schedule: Q01DX009 (ip), vehicle: saline with Tween-80
  T/C: 86 % of control

## CC[C@@H](C)[C@H]([C@H](CC(=O)N1CCC[C@@H]1[C@@H](OC)[C@H](C)C(=O)N[C@H](Cc1ccccc1)c1nccs1)OC)N(C)C(=O)[C@H](NC(=O)[C@@H](C(C)C)N(C)C)C(C)C
dose: 2.4 micrograms/kg/injection, schedule: Q01DX009 (ip), vehicle: saline + alcohol
  T/C: 171 % of control
dose: 4.0 micrograms/kg/injection, schedule: Q01DX009 (ip), vehicle: saline + alcohol
  T/C: 205 % of control
dose: 6.67 micrograms/kg/injection, schedule: Q01DX009 (ip), vehicle: saline + alcohol
  T/C: 182 % of control
dose: 11.11 micrograms/kg/injection, schedule: Q01DX009 (ip), vehicle: saline + alcohol
  T/C: 238 % of control
